The text below walks through data of the RepoRT retention time repository (doi:10.1016/j.chroma.2015.03.063).

This data set in a line: RP, Thermo Scientific Accucore C18, 150 × 2.1 mm, 2.6 µm, 24 °C, 0.28 mL/min, estimated dead time 0.83 min; A: 90% water + 10% acetonitrile + 10 mM ammonium acetate; B: 20% water + 80% methanol + 10 mM ammonium acetate; gradient (min/%B) 0/0 2.5/0 7.5/30 12.5/30 15/40 20/100 27.5/100. As to conditions: stereoisomer not certain.

As for `Cc1cc(C)cc(NC(=O)Cc2ccc(OC(C)(C)C(=O)O)cc2)c1`, the LC retention time was 9.1 min. The figure for `CC(C(O)c1ccccc1)N(C)C` (stereo not given) is 3.27 min. On to `CCCCNc1cc(C(=O)O)cc(S(N)(=O)=O)c1Oc1ccccc1`, for which the LC retention time is 9.25 min.

Regarding `CNCCC=C1c2ccccc2CCc2ccccc21`, the LC retention time was 15.6 min. For `CC(C)NCC(O)COc1ccc(CCOCC2CC2)cc1` (stereo not given) the value was 10.2 min. For `NC(CC(O)COc1cccc2ccccc12)=NO` (stereo not given) the value was 9.66 min. The figure for `COC(=O)C1=C(C)NC(C)=C(C(=O)OC)C1c1ccccc1[N+](=O)[O-]` is 17.2 min. In the case of `COC12CCC3(CC1C(C)(O)C(C)(C)C)C1Cc4ccc(O)c5c4C3(CCN1CC1CC1)C2O5` (stereo not given), the LC retention time is 22.2 min. For `CNC(C)CCC=C(C)C` (stereo not given) the value was 7.13 min. The figure for `CCCC(Cc1ccccc1)N1CCCC1` (stereo not given) is 9.51 min. Take `CCOC(=O)C1(c2ccccc2)CCN(C)CC1`: the LC retention time was 8.8 min.

Take `CNC(C)C(=O)c1ccc(C)cc1` (stereo not given): the LC retention time is 6.27 min. The figure for `COc1cc(Cc2cnc(N)nc2N)cc(OC)c1OC` is 6.44 min.

Regarding `C#CC1(O)CCC2C3CCC4=CC(=O)CCC4=C3C=CC21CC` (stereo not given), the LC retention time is 17.5 min. For `CCN(CC)C(=O)Nc1ccc(OCC(O)CNC(C)(C)C)c(C(C)=O)c1` (stereo not given) the value was 8.15 min.

Regarding `CC(=O)CC(c1ccccc1)c1c(O)c2ccccc2oc1=O` (stereo not given), the LC retention time is 9.01 min. The figure for `CCNC(C)C(=O)c1ccc(C)cc1` (stereo not given) is 6.99 min; for `CNC(C)Cc1ccccc1OC` (stereo not given) it is 6.54 min; for `CCCCCc1cc(O)c2c(c1)OC(C)(C)C1CCC(C(=O)O)=CC21` (stereo not given) it is 18.9 min. Regarding `CCC(C(=O)OCCN1CCOC(c2ccccc2)C1C)c1ccccc1` (stereo not given), the LC retention time is 21.2 min. The figure for `CC(C)c1c(CN(C)C(C)Cc2ccccc2)n(C)n(-c2ccccc2)c1=O` (stereo not given) is 21.3 min; for `CC(=O)OCC(=O)C12N=C(C)OC1CC1C3CCC4=CC(=O)C=CC4(C)C3C(O)CC12C` (stereo not given) it is 15.7 min; for `OCc1cc(C(O)CNCCCCCCOCCCCc2ccccc2)ccc1O` (stereo not given) it is 17 min. The figure for `N=C1NC(=O)C(c2ccccc2)O1` (stereo not given) is 3.65 min; for `COc1ccc2c3c1OC1C(O)C=CC4C(C2)N(C)CCC341` (stereo not given) it is 4.48 min. The figure for `CCCC(=O)Nc1ccc(OCC(O)CNC(C)C)c(C(C)=O)c1` (stereo not given) is 7.07 min; for `COC(=O)CCc1ccc(OCC(O)CNC(C)C)cc1` (stereo not given) it is 8.1 min. With `CC12C=CC(=O)C=C1CCC1C2C(=O)CC2(C)C1CCC2(O)C(=O)CO` (stereo not given), the LC retention time was 9.4 min.

Turning to `CNC(C)C(=O)c1ccccc1` (stereo not given), the LC retention time was 2.99 min.

On to `CS(=O)(=O)Nc1ccc([N+](=O)[O-])cc1Oc1ccccc1`, for which the LC retention time was 17.2 min.

With `CC1CC2C(C(O)CC3(C)C2CCC3(O)C(=O)CO)C2(C)C=CC(=O)C=C12` (stereo not given), the LC retention time is 11 min. The figure for `CNC(C)CC1CCCCC1` (stereo not given) is 8.35 min. The figure for `COc1ccccc1OCCNCC(O)COc1cccc2[nH]c3ccccc3c12` (stereo not given) is 15.4 min. For `CC(CN1CCOCC1)C(C(=O)N1CCCC1)(c1ccccc1)c1ccccc1` (stereo not given) the value was 19 min; for `CCCCCC(C)N` (stereo not given), 6.13 min. Consider `CCNC1C2CCC(C2)C1c1ccccc1` (stereo not given), for which the LC retention time was 9.1 min.

Take `CC(C)=CCN1CCC2(C)c3cc(O)ccc3CC1C2C` (stereo not given): the LC retention time was 9.19 min. The figure for `CNC(C)Cc1ccccc1` (stereo not given) is 4.66 min; for `CC(Cc1ccccc1)N(C)Cc1ccccc1` (stereo not given) it is 17.8 min; for `CNC(C)C(O)c1ccccc1` (stereo not given) it is 2.75 min. For `COc1cccc(C2(O)CCCCC2CN(C)C)c1` (stereo not given) the value was 7.44 min; for `COCCc1ccc(OCC(O)CNC(C)C)cc1` (stereo not given), 7.33 min; for `CCCC(C(=O)c1ccc2c(c1)OCO2)N1CCCC1` (stereo not given), 8.97 min.

In the case of `CC12CCC(=O)C=C1CCC1C2C(=O)CC2(C)C1CCC2(O)C(=O)CO` (stereo not given), the LC retention time is 9.34 min. As to `C1CCc2nnnn2CC1`, the LC retention time was 2.93 min.

On to `C=CCc1ccccc1OCC(O)CNC(C)C` (stereo not given), for which the LC retention time was 10.1 min. The figure for `CNC(C)Cc1ccc2c(c1)OCO2` (stereo not given) is 5.12 min; for `CC1C(c2ccccc2)OCCN1C` (stereo not given) it is 8.08 min.

`CC(Cc1ccccc1)N(C)Cc1ccco1` (stereo not given): the LC retention time was 14.8 min. For `CCC(=O)C(CC(C)N(C)C)(c1ccccc1)c1ccccc1` (stereo not given) the value was 16.5 min.

Turning to `CN1C2CCC1C(C(=O)O)C(OC(=O)c1ccccc1)C2` (stereo not given), the LC retention time was 4.81 min. Regarding `COC(=O)C1C(OC(=O)c2ccccc2)CC2CCC1N2C` (stereo not given), the LC retention time was 8.59 min.

Regarding `CC(N)Cc1ccccc1` (stereo not given), the LC retention time was 3.77 min. For `CC(C)(C#N)c1cc(Cn2cncn2)cc(C(C)(C)C#N)c1` the value was 12.2 min; for `C#CCN(C)C(C)Cc1ccccc1` (stereo not given), 15.1 min. With `CN(C)C(=O)Oc1cc(OC(=O)N(C)C)cc(C(O)CNC(C)(C)C)c1` (stereo not given), the LC retention time is 8.28 min. As to `c1ccc(CN2CCNCC2)cc1`, the LC retention time was 4.45 min. For `CC(=O)Oc1c(C)cc(OCC(O)CNC(C)C)c(C)c1C` (stereo not given) the value was 9.53 min; for `CC(N)C(=O)c1ccccc1` (stereo not given), 8.59 min. For `CCCN(CCC)S(=O)(=O)c1ccc(C(=O)O)cc1` the value was 8.74 min; for `CN(C)CCC=C1c2ccccc2CCc2ccccc21`, 17.2 min. In the case of `Nc1nc(N)c2nc(-c3ccccc3)c(N)nc2n1`, the LC retention time is 6.51 min. Regarding `CC12C=CC(=O)C=C1CCC1C2C(O)CC2(C)C1CCC2(O)C(=O)CO` (stereo not given), the LC retention time was 9.34 min. Consider `Cc1cc(=O)n(-c2ccccc2)n1C`, for which the LC retention time is 5.43 min.

Take `Cc1cccc(Nc2ccccc2C(=O)O)c1C`: the LC retention time was 13 min.

Turning to `CC(CCc1ccccc1)NCC(O)c1ccc(O)c(C(N)=O)c1` (stereo not given), the LC retention time was 9 min.

As to `O=C1CC2OCC=C3CN4CCC56c7ccccc7N1C5C2C3CC46` (stereo not given), the LC retention time was 6.68 min. For `CC(C)NCC(O)COc1cccc2[nH]ccc12` (stereo not given) the value was 5.15 min.

Turning to `CC1(C)OC2CC3C4CCC5=CC(=O)C=CC5(C)C4C(O)CC3(C)C2(C(=O)CO)O1` (stereo not given), the LC retention time is 12.7 min. As for `CC(C(=O)O)c1cccc(C(=O)c2ccccc2)c1` (stereo not given), the LC retention time is 8.05 min. On to `CC1NCCOC1c1ccccc1` (stereo not given), for which the LC retention time was 4.89 min. The figure for `COc1ccc2c3c1OC1C(=O)CCC4(O)C(C2)N(C)CCC314` (stereo not given) is 5.11 min.

On to `CC(C)(C)NCC(O)COc1cccc2c1CCC(=O)N2` (stereo not given), for which the LC retention time is 4.22 min.

As for `CC(C)(N)Cc1ccccc1`, the LC retention time was 4.37 min.

Regarding `CC(Cc1ccccc1)NCCn1cnc2c1c(=O)n(C)c(=O)n2C` (stereo not given), the LC retention time is 8.9 min.
